In ChEMBL document CHEMBL3864146, “5-Alkyloxytryptamines are membrane-targeting, broad-spectrum antibiotics” (Bioorg Med Chem Lett, 2016):

Columns and labels:
Pseudomonas aeruginosa [1] = test: Adjuvant activity assessed as potentiation of tetracycline-induced antibacterial activity against Pseudomonas aeruginosa at 3.2 ug/ml after 16 to 18 hrs by checkerboard assay (reference value: 32 ug/ml); format: functional
[2] = Cytotoxicity against HEK cells assessed as cell viability at 1.6 ug/ml after 48 hrs by CellTiter-Glo assay relative to control; format: toxicity, cell-based, HEK293; details: human, read-out: Activity
[3] = Cytotoxicity against HEK cells assessed as cell viability at 0.8 ug/ml after 24 hrs by CellTiter-Glo assay relative to control; format: toxicity, cell-based, HEK293; details: human, read-out: Activity
Escherichia coli [4] = test: Adjuvant activity assessed as potentiation of rifampicin-induced antibacterial activity against Escherichia coli BW25113 at 0.5 times MIC after 16 to 18 hrs by checkerboard assay (reference value: 8 ng/ml); format: functional
Salmonella typhimurium [5] = test: Adjuvant activity assessed as potentiation of tetracycline-induced antibacterial activity against Salmonella typhimurium at 3.2 ug/ml after 16 to 18 hrs by checkerboard assay (reference value: 1 ug/ml); format: functional, Salmonella enterica subsp. enterica serovar Typhimurium; details: Salmonella enterica
Klebsiella pneumoniae [6] = test: Adjuvant activity assessed as potentiation of tetracycline-induced antibacterial activity against Klebsiella pneumoniae at 3.2 ug/ml after 16 to 18 hrs by checkerboard assay (reference value: 2 ug/ml); format: functional
Escherichia coli [7] = test: Adjuvant activity assessed as potentiation of ciprofloxacin-induced antibacterial activity against Escherichia coli BW25113 at 0.5 times MIC after 16 to 18 hrs by checkerboard assay (reference value: 13 ng/ml); format: functional
Shigella boydii = test: Antibacterial activity against Shigella boydii after 16 to 18 hrs by micro-dilution method; format: functional
[8] = Cytotoxicity against HEK cells assessed as cell viability at 3.2 ug/ml after 24 hrs by CellTiter-Glo assay relative to control; format: toxicity, cell-based, HEK293; details: human, read-out: Activity
Escherichia coli [9] = test: Adjuvant activity assessed as potentiation of chloramphenicol-induced antibacterial activity against Escherichia coli BW25113 at 0.25 times MIC after 16 to 18 hrs by checkerboard assay (reference value: 8 ng/ml); format: functional
Klebsiella aerogenes = test: Antibacterial activity against Enterobacter aerogenes after 16 to 18 hrs by micro-dilution method; format: functional
Acinetobacter baumannii [10] = test: Adjuvant activity assessed as potentiation of tetracycline-induced antibacterial activity against Acinetobacter baumannii at 3.2 ug/ml after 16 to 18 hrs by checkerboard assay (reference value: 1 ug/ml); format: functional
Escherichia coli [11] = test: Adjuvant activity assessed as potentiation of chloramphenicol-induced antibacterial activity against Escherichia coli BW25113 at 0.5 times MIC after 16 to 18 hrs by checkerboard assay (reference value: 8 ng/ml); format: functional
Escherichia coli [12] = test: Adjuvant activity assessed as potentiation of ciprofloxacin-induced antibacterial activity against Escherichia coli BW25113 at 0.25 times MIC after 16 to 18 hrs by checkerboard assay (reference value: 13 ng/ml); format: functional
Staphylococcus aureus [13] = test: Antibacterial activity against Staphylococcus aureus after 16 to 18 hrs by micro-dilution method; format: functional
Vibrio cholerae = test: Antibacterial activity against Vibrio cholerae after 16 to 18 hrs by micro-dilution method; format: functional
[14] = Cytotoxicity against HEK cells assessed as cell viability at 3.2 ug/ml after 48 hrs by CellTiter-Glo assay relative to control; format: toxicity, cell-based, HEK293; details: human, read-out: Activity
[15] = Cytotoxicity against HEK cells assessed as cell viability at 1.6 ug/ml after 24 hrs by CellTiter-Glo assay relative to control; format: toxicity, cell-based, HEK293; details: human, read-out: Activity
Pseudomonas aeruginosa [16] = test: Antibacterial activity against Pseudomonas aeruginosa after 16 to 18 hrs by micro-dilution method; format: functional
Morganella morganii = test: Antibacterial activity against Morganella morganii after 16 to 18 hrs by micro-dilution method; format: functional
Escherichia coli [17] = test: Adjuvant activity assessed as potentiation of rifampicin-induced antibacterial activity against Escherichia coli BW25113 at 0.25 times MIC after 16 to 18 hrs by checkerboard assay (reference value: 8 ng/ml); format: functional
Klebsiella pneumoniae [18] = test: Antibacterial activity against Klebsiella pneumoniae after 16 to 18 hrs by micro-dilution method; format: functional
Escherichia coli [19] = test: Induction of membrane permeabilization in Escherichia coli BW25113 at MIC after 15 mins by propidium iodide staining-based fluorescence microplate reader method relative to 50% ethanol; format: functional
Escherichia coli [20] = test: Antibacterial activity against Escherichia coli BW25113 after 16 to 18 hrs by micro-dilution method; format: functional
Bacillus subtilis = test: Antibacterial activity against Bacillus subtilis 168 after 16 to 18 hrs by micro-dilution method; format: functional; details: subsp. subtilis str. 168
Staphylococcus aureus [21] = test: Adjuvant activity assessed as potentiation of tetracycline-induced antibacterial activity against Staphylococcus aureus at 1.6 ug/ml after 16 to 18 hrs by checkerboard assay (reference value: 0.125 ug/ml); format: functional
Escherichia coli [22] = test: Adjuvant activity assessed as potentiation of tetracycline-induced antibacterial activity against Escherichia coli BW25113 at 0.5 times MIC after 16 to 18 hrs by checkerboard assay (reference value: 2 ng/ml); format: functional
Escherichia coli [23] = test: Antibacterial activity against tolC-deficient Escherichia coli BW25113 after 16 to 18 hrs by micro-dilution method; format: functional
[24] = Cytotoxicity against HEK cells assessed as cell viability at 0.8 ug/ml after 48 hrs by CellTiter-Glo assay relative to control; format: toxicity, cell-based, HEK293; details: human, read-out: Activity
Acinetobacter baumannii [25] = test: Antibacterial activity against Acinetobacter baumannii after 16 to 18 hrs by micro-dilution method; format: functional
Edwardsiella tarda = test: Antibacterial activity against Edwardsiella tarda after 16 to 18 hrs by micro-dilution method; format: functional
Escherichia coli [26] = test: Adjuvant activity assessed as potentiation of tetracycline-induced antibacterial activity against Escherichia coli BW25113 at 0.25 times MIC after 16 to 18 hrs by checkerboard assay (reference value: 2 ng/ml); format: functional
Salmonella typhimurium [27] = test: Antibacterial activity against Salmonella typhimurium after 16 to 18 hrs by micro-dilution method; format: functional, Salmonella enterica subsp. enterica serovar Typhimurium; details: Salmonella enterica
[28] = Cytotoxicity against HEK cells assessed as cell viability at 6.9 ug/ml after 48 hrs by CellTiter-Glo assay relative to control; format: toxicity, cell-based, HEK293; details: human, read-out: Activity
[29] = Cytotoxicity against HEK cells assessed as cell viability at 3.5 ug/ml after 24 hrs by CellTiter-Glo assay relative to control; format: toxicity, cell-based, HEK293; details: human, read-out: Activity
[30] = Cytotoxicity against HEK cells assessed as cell viability at 6.9 ug/ml after 24 hrs by CellTiter-Glo assay relative to control; format: toxicity, cell-based, HEK293; details: human, read-out: Activity
[31] = Cytotoxicity against HEK cells assessed as cell viability at 14 ug/ml after 24 hrs by CellTiter-Glo assay relative to control; format: toxicity, cell-based, HEK293; details: human, read-out: Activity
[32] = Cytotoxicity against HEK cells assessed as cell viability at 14 ug/ml after 48 hrs by CellTiter-Glo assay relative to control; format: toxicity, cell-based, HEK293; details: human, read-out: Activity
[33] = Cytotoxicity against HEK cells assessed as cell viability at 3.5 ug/ml after 48 hrs by CellTiter-Glo assay relative to control; format: toxicity, cell-based, HEK293; details: human, read-out: Activity

Compound | MIC (Escherichia coli [4]) [µg/mL] | MIC (Escherichia coli [7]) [µg/mL] | MIC (Shigella boydii) [µg/mL] | MIC (Escherichia coli [9]) [µg/mL] | MIC (Klebsiella aerogenes) [µg/mL] | MIC (Escherichia coli [11]) [µg/mL] | MIC (Escherichia coli [12]) [µg/mL] | MIC (Staphylococcus aureus [13]) [µg/mL] | MIC (Vibrio cholerae) [µg/mL] | MIC (Pseudomonas aeruginosa [16]) [µg/mL] | MIC (Morganella morganii) [µg/mL] | MIC (Escherichia coli [17]) [µg/mL] | MIC (Klebsiella pneumoniae [18]) [µg/mL] | Activity (Escherichia coli [19]) [%] | MIC (Escherichia coli [20]) [µg/mL] | MIC (Bacillus subtilis) [µg/mL] | MIC (Escherichia coli [22]) [µg/mL] | MIC (Escherichia coli [23]) [µg/mL] | MIC (Acinetobacter baumannii [25]) [µg/mL] | MIC (Edwardsiella tarda) [µg/mL] | further results
CCCCCCCCCCOc1ccc2[nH]cc(CCN)c2c1.Cl | 0.001 | 0.013 | 3.2 | 0.004 | 13 | 0.002 | 0.013 | 3.2 to 6.3 | 6.3 | > 101 | 101 | 0.008 | 6.3 | 83 | 6.3 | 1.6 | 0.00025 | 3.2 | 6.3 | 25 | MIC (Pseudomonas aeruginosa [1]): 16 µg/mL; viability at 48 h, 1.6 ug/ml [2]: 17%; viability at 24 h, 0.8 ug/ml [3]: 59.7%; MIC (Salmonella typhimurium [5]): 0.016 µg/mL; MIC (Klebsiella pneumoniae [6]): 2 µg/mL; viability at 24 h, 3.2 ug/ml [8]: 13.4%; MIC (Acinetobacter baumannii [10]): 0.25 µg/mL; viability at 48 h, 3.2 ug/ml [14]: 2%; viability at 24 h, 1.6 ug/ml [15]: 29.6%; MIC (Staphylococcus aureus [21]): 0.001 µg/mL; viability at 48 h, 0.8 ug/ml [24]: 39.1%; MIC (Escherichia coli [26]): 0.001 µg/mL; MIC (Salmonella typhimurium [27]): 6.3 µg/mL
CCCCCCCCCCCCOc1ccc2[nH]cc(CCN)c2c1.Cl | 0.00025 | 0.0008 | 14 | 0.001 | > 110 | 0.0005 | 0.013 | 3.4 | 28 | > 110 | > 110 | 0.001 | > 110 | 10 | 26 | 1.7 | 0.00025 | 6.9 | 28 | > 110 | viability at 48 h, 6.9 ug/ml [28]: 2.6%; viability at 24 h, 3.5 ug/ml [29]: 26%; viability at 24 h, 6.9 ug/ml [30]: 10.4%; viability at 24 h, 14 ug/ml [31]: 1.5%; viability at 48 h, 14 ug/ml [32]: 0.2%; MIC (Escherichia coli [26]): 0.001 µg/mL; MIC (Salmonella typhimurium [27]): 28 µg/mL; viability at 48 h, 3.5 ug/ml [33]: 13.4%
